Assay results from patent US20220144938A1, “IDENTIFICATION AND TARGETING OF TUMOR PROMOTING CARCINOMA ASSOCIATED FIBROBLASTS FOR DIAGNOSIS AND TREATMENT OF CANCER AND OTHER DISEASES” (Board of Regents, The University of Texas System, priority 2018, published 2022).
Entries after “also recorded” stand apart in the source; their conditions may differ.

Assays:
[1] = test system: IL-6 and Acta2 (αSMA) transcripts; assay: qPCR and immunolabeling of IL-6 and αSMA in tumors; assay type: in vivo; settings: tumors of KPPF mice following gemcitabine treatment
Description: Formalin-fixed, paraffin-embedded (FFPE) sections were processed for immunohistochemical (IHC) staining as previously described (Zheng et al., 2015), after Citrate based antigen retrieval (pH=6). For FAP staining in mouse FFPE sections citrate-based antigen retrieval was performed at pH 7.4. Staining for αSMA was performed with M.O.M. kit (Vector Laboratories) following the manufacturer's instructions. For all other staining, sections were incubated with biotinylated goat anti-rabbit and streptavidin HRP (Biocare Medical), each for 10 min. For all staining, counterstaining with hematoxylin was performed and DAB positivity was examined in ten visual fields at 200× magnification. […] The images were quantified for positive area using NIH ImageJ analysis software (αSMA, CD31, CK19, cleaved caspase-3, Ki67, MTS, phospho-Akt, phospho-ERK1/2, phospho-Stat3). For αSMA and FAP double immunofluorescence in human FFPE sections, secondary anti-sheep Alexa Fluor 488 and anti-mouse Alexa Fluor 534 antibodies were incubated for 30 min at RT. […]
Gene expression analyses and global gene expression profiling. […] The expression level of detected genes was normalized to that of Gapdh housekeeping gene. […] Primer sequences for detected genes are listed below. […]

[2] = test system: phospho-Stat3, phospho-ERK1/2, phospho-Akt; assay: Immunohistochemistry for phospho-Stat3, phospho-ERK1/2 and phospho-Akt in tumors; assay type: in vivo, mice
Description: (§1) Formalin-fixed, paraffin-embedded (FFPE) sections were processed for immunohistochemical (IHC) staining as previously described (Zheng et al., 2015), after Citrate based antigen retrieval (pH=6). For FAP staining in mouse FFPE sections citrate-based antigen retrieval was performed at pH 7.4. Staining for αSMA was performed with M.O.M. kit (Vector Laboratories) following the manufacturer's instructions. For all other staining, sections were incubated with biotinylated goat anti-rabbit and streptavidin HRP (Biocare Medical), each for 10 min. For all staining, counterstaining with hematoxylin was performed and DAB positivity was examined in ten visual fields at 200× magnification. […] The images were quantified for positive area using NIH ImageJ analysis software (αSMA, CD31, CK19, cleaved caspase-3, Ki67, MTS, phospho-Akt, phospho-ERK1/2, phospho-Stat3). For αSMA and FAP double immunofluorescence in human FFPE sections, secondary anti-sheep Alexa Fluor 488 and anti-mouse Alexa Fluor 534 antibodies were incubated for 30 min at RT. For αSMA and FAP IHC on FAP-TK and control tumor sections, immunoreactive score (IRS) were obtained from the sum of distribution and intensity scores for each section, established on a scale of 1 to 4 (Meyerholz & Beck, 2018).

[3] = test system: PDAC tumors (KPPF GEM); assay: Immunohistochemistry/staining of pancreas sections for CD31, Ki67, cleaved caspase 3 and MTS; assay type: in vivo, mice
Description: as §1
Histopathological Scoring. Mouse tissues were fixed in 10% neutral buffered formalin, embedded in paraffin, and sectioned at 5 μm thickness. Sections were processed for haematoxylin and eosin (H&E) staining and/or Masson's trichrome staining (MTS) using Gomori's Trichome Stain Kit (38016SS2, Leica Biosystems). Histopathological assessments were conducted in a blinded fashion by scoring H&E-stained sections for relative percentages of the listed histopathological phenotypes. Tumor scores for orthotopic tumors were attributed on a scale from 1 (minor involvement) to 4 (extensive involvement), which evaluated on H&E sections of the entire pancreas the relative tumor involvement. Microscopic metastases were examined in H&E-stained tissue sections of the liver and lung. Positivity (one or more lesions in one tissue) was confirmed by CK19 staining. Images were obtained with a Leica DM 1000 LED microscope and an MC120 HD Microscope Camera with Las V4.4 Software (Leica).

[4] = test system: PDAC tumors lacking p53 (KPPF); assay: Survival of PDAC genetically engineered mice under treatment (Kaplan-Meier, log rank); assay type: in vivo
Excerpt: Mice. FSF-Kras^G12D/+ (Schonhuber et al., 2014), Pdx1-Flp (Schonhuber et al., 2014), Trp53^frt/+ (Lee et al., 2012), LSL-Kras^G12D/+ (Hingorani et al., 2005), Pdx1-Cre (Hingorani et al., 2005), αSMA-Cre (LeBleu et al., 2013), αSMA-RFP (LeBleu et al., 2013), Rosa26-loxP-Stop-loxP-YFP (Ozdemir et al., 2014), Tgfbr2^loxP/loxP (Ijichi et al., 2006), and IL-6^loxP/loxP (Quintana et al., 2013) mouse strains were previously documented. The Rosa26-CAG-loxP-frt-Stop-frt-FireflyLuc-EGFP-loxP-RenillaLuc-tdTomato (referred to as R26^Dual), FSF-Kras^G12D/+, Pdx1-Flp, and Trp53^frt/+ strains were kindly provided by D. Saur, and the R26R-Brainbow2.1/Confetti (referred to as R26^Confetti) strain was purchased from Jackson Laboratory (Stock 013731). The IL-6^−/− strain was generated by crossing the IL-6^loxP/loxP strain with CMV-Cre strain (Jackson Laboratory; Stock 006054). The FAP-TK transgenic strain was newly generated: a 5 kb sequence flanking the FAP promoter and partial Exon 1 (Ex1) was cloned into pORF-HSV1-TK vector (Invivogen) using NotI and AgeI. The sequence-confirmed FAP-TK construct was released from the vector using NotI and SwaI before purification and injection into fertilized eggs. The transgenic mice were generated on the C57Bl/6 genetic background. These mice were bred onto PDAC GEM or implanted orthotopically with 689KPC cancer cells, as previously described (Kamerkar et al., 2017). Mice were maintained on a mixed genetic background and both male and female mice were evaluated. Mice were given gemcitabine (G-4177, LC Laboratories) intraperitoneally (i.p.) twice per week at 40 mg/kg of body weight. Gemcitabine treatment was initiated at 35 days of age. Ganciclovir (GCV; sud-gcv, Invivogen) was administered i.p. daily at 50 mg/kg of body weight ([…]). GCV was administered to PKT mice at 28 to 30 days of age, and to PKP mice at 50-51 days of age. Some of the tissues analyzed from the PKT;αSMA-TK GEM were from mice that were previously published (Ozdemir et al., 2014). […]

[5] = test system: PDAC tumors (KPPF GEM); assay: Histopathological scoring and tumor burden of pancreas tumors; assay type: in vivo; settings: gemcitabine in KPPF;IL-6smaKO vs KPPF mice
Excerpt: Mice. FSF-Kras^G12D/+ (Schonhuber et al., 2014), Pdx1-Flp (Schonhuber et al., 2014), Trp53^frt/+ (Lee et al., 2012), LSL-Kras^G12D/+ (Hingorani et al., 2005), Pdx1-Cre (Hingorani et al., 2005), αSMA-Cre (LeBleu et al., 2013), αSMA-RFP (LeBleu et al., 2013), Rosa26-loxP-Stop-loxP-YFP (Ozdemir et al., 2014), Tgfbr2^loxP/loxP (Ijichi et al., 2006), and IL-6^loxP/loxP (Quintana et al., 2013) mouse strains were previously documented. The Rosa26-CAG-loxP-frt-Stop-frt-FireflyLuc-EGFP-loxP-RenillaLuc-tdTomato (referred to as R26^Dual), FSF-Kras^G12D/+, Pdx1-Flp, and Trp53^frt/+ strains were kindly provided by D. Saur, and the R26R-Brainbow2.1/Confetti (referred to as R26^Confetti) strain was purchased from Jackson Laboratory (Stock 013731). The IL-6^−/− strain was generated by crossing the IL-6^loxP/loxP strain with CMV-Cre strain (Jackson Laboratory; Stock 006054). […] Mice were maintained on a mixed genetic background and both male and female mice were evaluated. […] Some of the tissues analyzed from the PKT;αSMA-TK GEM were from mice that were previously published (Ozdemir et al., 2014). […]
Histopathological Scoring. […] Tumor scores for orthotopic tumors were attributed on a scale from 1 (minor involvement) to 4 (extensive involvement), which evaluated on H&E sections of the entire pancreas the relative tumor involvement. […]

[6] = test system: intra-tumoral T cells; assay: Flow cytometry characterization of tumor immune infiltration; assay type: in vivo; settings: gemcitabine treatment, mice with IL-6
Description: For the characterization of immune infiltration, tumors (from 2.5-month-old mice, treated with saline or gemcitabine for 2 weeks) were weighed, minced with gentleMACS Dissociator, and digested in 2 mL solution containing 1 mg/mL Liberase TL (Roche) and 0.2 mg/mL DNase I in DMEM media at 37° C. for 30 min. Spleens were weighed and filtered through a 100 μm mesh. Peripheral blood was collected with EDTA-tube, incubated with ACK lysis buffer for 5 min, and proceeded to mesh filtration. The tissue lysates were filtered through a 100 μm mesh before immunostaining. The subsequent single-cells suspension was stained with Fixable Viability Dye eFluor 780 (eBioscience) and antibodies specified in Table 2. The percentage positive cells were analyzed by FlowJo 10.1 and gated on CD45 positivity. Unstained, viability stain only, and single-stained beads (eBioscience) were used as compensation controls. Singlets were gated using forward scatter (FSC) height (FSC-H) and FSC area (FSC-A) event characteristics.

[7] = gemcitabine with loss of IL-6 from αSMA+ CAFs (KPPF;IL-6smaKO)
[8] = tumors of KPPF mice treated with gemcitabine
[9] = gemcitabine in mice with αSMA+ CAFs-specific loss of IL-6, vs controls

With Nc1ccn([C@@H]2O[C@H](CO)[C@@H](O)C2(F)F)c(=O)n1 [gemcitabine] as the compound, how does the “IL-6 transcript levels and positive cells” value [1] read?
Its value is “elevated”.

What about the “αSMA transcript levels and αSMA+ CAFs” value [1] of the same compound?
Its value is “elevated”.

And the “gemcitabine-induced change in phosphorylated Akt” value [2, 7]?
The value was “significantly attenuated”.

What about the “gemcitabine-induced change in phosphorylated ERK1/2” value [2, 7] of the same compound?
The value was “significantly attenuated”.

And the “gemcitabine-induced change in phosphorylated Stat3” value [2, 7]?
The value was “significantly attenuated”.

And the “levels of phosphorylated Akt in cancer cells” value [2, 8]?
The value was “elevated levels”.

And the “levels of phosphorylated ERK1/2 in cancer cells” value [2, 8]?
The value was “elevated levels”.

What about the “levels of phosphorylated Stat3 in cancer cells” value [2, 8] of the same compound?
Its value is “elevated levels”.

What about the “cleaved caspase-3, indicative of apoptosis” value ([3]; gemcitabine concurrent with αSMA+ CAFs-specific loss of IL-6) of the same compound?
The value was “further increased”.

What about the cancer cell proliferation [3, 9] of the same compound?
The cancer cell proliferation was “did not significantly impact”.

What about the tumor collagen deposition [3, 9] of the same compound?
The tumor collagen deposition was “did not significantly impact”.

And the tumor vasculature [3, 9]?
Its tumor vasculature is “did not significantly impact”.

What about the “cleaved caspase-3, indicative of apoptosis” value ([3]; mice treated with gemcitabine) of the same compound?
Its value is “elevated”.

What about the overall survival ([4]; KPPF mice, gemcitabine 40 mg/kg i.p. twice per week, vs untreated KPPF mice) of the same compound?
Its overall survival is “no benefit”.

And the overall survival ([4]; KPPF;IL-6smaKO mice (αSMA+ CAFs-specific loss of IL-6) treated with gemcitabine, vs KPPF mice treated with gemcitabine)?
Its overall survival is “increase in overall survival; also recorded: overall increase in survival”.

And the overall survival ([4]; KPPF;IL-6−/− mice (absent IL-6) treated with gemcitabine, vs KPPF mice treated with gemcitabine)?
Its overall survival is “increased overall survival; also recorded: overall increase in survival”.

What about the tumor burden [5] of the same compound?
The tumor burden was “reduced tumor burden”.

And the histopathology ([5]; moribund endpoint)?
Its histopathology is “improved histopathology”.

And the “intra-tumoral T cell frequencies” value [6]?
The value was “minimally impacted”.
